According to patent publication US12187672B2, “1,2-diacylglycerol compound, preparation method therefor, and immunomodulator containing same as active ingredient” (ENZYCHEM LIFESCIENCES CORPORATION, priority 2018, dated 2025):

Tests used:
IL-6 = assay: LPS-induced IL-6 secretion reduction in RAW264.7 cells (ELISA); format: cell-based, mouse; details: sample 100 μg/ml 1 h, then LPS 1 μg/ml 24 h, Table 2
Protocol: In DMEM (Dulbecco Modified Eagle Medium, Hyclone, Thermo Scientific) medium to which 10% Fetal Bovine Serum was added, RAW264.7 cells, a mouse macrophage family, were suspended at a concentration of 1×10^5 cells/ml, and culture was conducted in a 5% CO2 humidified incubator at 37° C. The cultured RAW264.7 cells were inoculated into a 48 well plate by 5×10^4 cells/ml and stabilized for 15 hours. Then, the culture solution was treated with a glycerol derivative compounds of the type shown in Table 2 and 3 below for 1 hour and then was treated with 1 μg/ml of Lipopolysaccaride (LPS) of a cell stimulator, and subsequent further incubation was conducted for 24 hours. Thereafter 0.5 ml of the culture supernatant was collected for each well and centrifuged (at 3000 rpm, 5 minutes) to recover the supernatant. The IL-6 level in the recovered supernatant was measured according to the manual provided by the Mouse IL-6 ELISA set (BD Biosciences). The day before ELISA was carried out, the IL-6 capture antibody was diluted in phosphate buffered saline, coated on a microwell, and then stored at 4° C. overnight. Each well was washed three times with a buffer solution and then blocked with 2% Bovine Serum Albumin (BSA) for 1 hour at room temperature. After washing with buffer solution three times, […] of sample was dispensed into each well and left at room temperature for 2 hours. Detection antibody which was washed 3 times with washing buffer solution and diluted was dispensed into each well and allowed to react at room temperature for 1 hour and left at room temperature for 1 hour. Thereafter, the secondary HRP conjugated antibody was reacted at room temperature for 30 minutes, washed three times with a buffer solution, and treated with 50 μl of stop solution for each well, and then the optical density was measured at 450 nm with an ELISA microplate leader. The results of the IL-6 expression reduction rate (IL-6 concentration) are shown in Table 2, Table 3, FIG. 1 and FIG. 2 below.

STAT3 = assay: IL-6-induced STAT3 activity, SEAP expression in HEK-Blue IL-6 cells; format: cell-based; details: HEK-Blue IL-6 cells; for STAT3 activity_SEAP expression(%) (average ± deviation): sample 100 μg/ml 1 h, then IL-6 5 ng/ml 24 h, negative control = 100
Protocol: HEK-Blue™ IL-6 cells were used to confirm STAT3 activity by STAT3-induced SEAP (secreted embryonic alkaline phosphatase) expression. In DMEM (Hyclone, Thermo Scientific) medium to which 10% Fetal Bovine Serum was added, HEK-Blue™ IL-6 cells were cultured at a concentration of 1×10^5 cells/ml, and maintained in a 5% CO2 humidified incubator at 37° C. The cultured HEK-Blue™ IL-6 cells were inoculated by 1×10^5 cells/ml. Then, the culture solution was treated with a glycerol derivative compounds of the type shown in Table 4 below for 1 hour and then IL-6 (5 ng/ml) was further incubated for 24 hours for STAT3 activity. Thereafter, the culture supernatant was collected for each well and centrifuged (at 3000 rpm, 5 minutes) to recover the supernatant. The SEAP expression level in the recovered supernatant was mixed with Quanti blue reagent and the supernatant at a ratio of 1:10 and left at 37° C. for about 30 minutes. Then, the SEAP concentration was confirmed at 650 nm wavelength using a spectrophotometer, and the results (STAT3 activity inhibitory ability) thereof are shown in Table 4 and FIG. 3 below.

CXCL8 (IL-8) = CXCL8 (IL-8) expression reduction in Gemcitabine-treated THP-1 cells (ELISA); format: cell-based, human; details: THP-1 cells; for CXCL8 [IL-8] concentration (average ± deviation): sample 100 μg/ml 1 h, then Gemcitabine 2 μg/ml 24 h
Protocol: In RPMI (Hyclone, Thermo Scientific) medium to which 10% Fetal Bovine Serum was added, THP-1 cells, a human macrophage family, were suspended at a concentration of 1×10^5 cells/ml, and culture was conducted in a 5% CO2 humidified incubator at 37° C. The cultured THP-1 cells were inoculated into a 12 well plate by 1×10^6 cells/ml and stabilized for 30 minutes. Then, the culture solution was treated with a glycerol derivative compounds of the type shown in Table 6 below for 1 hour and then was treated with Gemcitabine (2 μg/ml) of a cell stimulator, and subsequent further incubation was conducted for 24 hours. Thereafter 1.5 ml of the culture supernatant was collected for each well and centrifuged (at 3000 rpm, 5 minutes) to recover the supernatant. The CXCL8 (IL-8) level in the recovered supernatant was measured according to the manual provided by the human IL-8 ELISA set (BD Biosciences). The day before ELISA was carried out, the IL-8 capture antibody was diluted in phosphate buffered saline, coated on a microwell, and then stored at 4° C. overnight. Each well was washed three times with a buffer solution and then blocked with 2% Bovine Serum Albumin (BSA) for 1 hour at room temperature. After washing with washing buffer solution three times, 100 μl of sample was dispensed into each well and left at room temperature for 2 hours. Detection antibody which was washed 3 times with washing buffer and diluted was dispensed into each well and allowed to react at room temperature for 1 hour and left at room temperature for 1 hour. Thereafter, the secondary HRP conjugated antibody was reacted at room temperature for 30 minutes, washed three times with a washing buffer, and treated with 50 μl of stop solution for each well, and then the optical density was measured at 450 nm with an ELISA microplate leader.

HL-60 cells = assay: Migration of HL-60 cell line toward THP-1 culture supernatant (transmigration assay); format: cell-based, human; details: supernatant of THP-1 cells treated with sample 100 μg/ml 1 h, then Gemcitabine 2 μg/ml 24 h
Protocol: In RPMI (Hyclone, Thermo Scientific) medium to which 10% Fetal Bovine Serum was added, THP-1 cells, a human macrophage family, were subcultured at a concentration of 1×10^5 cells/ml, and culture was conducted in a 5% CO2 humidified incubator at 37° C. In order to prepare the THP-1 cell culture solution to be treated in the lower well during the transmigration assay, first, the cultured THP-1 cells were inoculated into a 12 well plate by 1×10^6 cells/ml and stabilized for 30 minutes. Then, the culture solution was treated with a glycerol derivative compounds of the type shown in Table 7 below for 1 hour and then was treated with Gemcitabine (2 μg/ml) of a cell stimulator, and subsequent further incubation was conducted for 24 hours. Thereafter 1.5 ml of the culture supernatant was collected for each well and centrifuged (at 3000 rpm, 5 minutes) to recover the supernatant. The CXCL8 (IL-8) level in the recovered supernatant was measured according to the manual provided by Cultrex 96 well Laminin Cell Invasion assay. The day before Transmigration assay was carried out, a 1× Lamin I solution was treated in the upper Invasion Chamber and coated. Thereafter, in RPMI (Hyclone, Thermo Scientific) medium to which 10% Fetal Bovine Serum was added, the cultured HL-60 cells were despensed of 5×10^4 cells/chamber, and 150 μl of the THP-1 culture supernatant prepared in advance was added to the lower chamber. Thereafter the upper chamber was removed, and the cells were attached to the bottom of the lower chamber by a centrifuge, and then the supernatant was removed. Cell dissociation/Calcein-AM solution was added and reacted for 1 hour. Then, the value obtained using a fluorescence spectroscopy was calculated by converting the number of cells.

STAT6 = assay: IL-4-induced STAT6 activity, pGL4-STAT6 luciferase reporter in A549 cells; format: cell-based; details: sample 100 μg/ml 1 h, then IL-4 (2 ng/ml) 20 h, Table 9
Protocol: In DMEM (Dulbecco Modified Eagle Medium, Hyclone, Thermo Scientific) medium to which 10% Fetal Bovine Serum was added, A549 cells were subcultured at a concentration of 1×10^5 cells/ml, and culture was conducted in a 5% CO2 humidified incubator at 37° C. The cultured A549 cells were inoculated into a 48 well plate by 1×10^5 cells/ml and stabilized for 18 hours. Thereafter, pGL4-STAT6 reporter vector containing a STAT6 binding promoter portion was mixed with Attractene to induce complex formation at room temperature for 15 minutes. This complex was treated with the cells and then further incubated for 24 hours. Thereafter, the culture solution was treated with a glycerol derivative compounds of the type shown in Table 9 and 10 below for 1 hour, and then IL-4 (2 ng/ml or 10 ng/ml) was further incubated for 20 hours for STAT6 activity. Thereafter, the culture supernatant was removed for each well, and the remaining cells were lysed with a cell lysis buffer, and then cell lysate was recovered. 90 μl of luciferase reagent was mixed with 10 μl of the recovered cell lysate, and the degree of fluorescence was confirmed using a luminometer. The results are shown in Table 9, Table 10, FIG. 9 and FIG. 10 below.

IL-4 = assay: PKC activator-induced IL-4 secretion reduction in EL-4 cells (ELISA); format: cell-based, mouse; details: sample 100 μg/ml 2 h, then PKC activator 18 h, Table 11
Protocol: In DMEM (Dulbecco Modified Eagle Medium, Hyclone, Thermo Scientific) medium to which 10% Fetal Bovine Serum was added, EL-4 cells, a mouse lymphoma family, were subcultured at a concentration of 1×10^5 cells/ml, and culture was conducted in a 5% CO2 humidified incubator at 37° C. The cultured EL-4 cells were inoculated into a 48 well plate by 5×10^4 cells/ml and stabilized for 30 hours. Then, the culture solution was treated with a glycerol derivative compounds of the type shown in Table 11 and 12 below for 2 hours. Thereafter, it were treated with 0.5 μg/ml of PKC activator (p10, some kind of PMA) of a cell stimulator, and subsequent further incubation were conducted for 18 hours. Thereafter 0.5 ml of the culture supernatant was collected for each well and centrifuged (at 3000 rpm, 5 minutes) to recover the supernatant. The IL-4 level in the recovered supernatant was measured according to the manual provided by the Mouse IL-4 ELISA set (BD Biosciences). The day before ELISA was carried out, the IL-4 capture antibody was diluted in phosphate buffered saline, coated on a microwell, and then stored at 4° C. overnight. Each well was washed three times with a buffer solution and then blocked with 2% Bovine Serum Albumin (BSA) for 1 hour at room temperature. After washing with buffer solution three times, 100 μl of sample was dispensed into each well and left at room temperature for 2 hours. Detection antibody which was washed 3 times with washing buffer solution and diluted was dispensed into each well and allowed to react at room temperature for 1 hour and left at room temperature for 1 hour. Thereafter, the secondary HRP conjugated antibody was reacted at room temperature for 30 minutes, washed three times with buffer solution, and treated with 50 μl of stop solution for each well, and then the optical density was measured at 450 nm with an ELISA microplate leader. The results of the measured expression reduction rate ([…]) were shown in Table 11, Table 12, FIG. 11 and FIG. 12 below.

In the case of CCCCC/C=C\C/C=C\CCCCCCCC(=O)OC(COC(=O)CCCCCCCCCCCCCCC)COC(=O)C(C)C (stereo not shown) [EC_A19], the “IL-6 concentration (average ± deviation)” value (IL-6) is reported as 0.204 ± 0.014 µg/mL, the “STAT3 activity_SEAP expression(%) (average ± deviation)” value (STAT3) is reported as 162.9 ± 33.2% and the “CXCL8 [IL-8] concentration (average ± deviation)” value (CXCL8 (IL-8)) is reported as 277.9 ± 3.1 pg/µL. For the same compound, the “Number of HL-60 cells migrated through Transwell” value (“Number” for short) (HL-60 cells) was 14882.8 Cell Number and the “STAT6 activity_Luciferase activity (average ± deviation)” value (STAT6) was 898.7 ± 115.9.

In the case of CCCCC/C=C\C/C=C\CCCCCCCC(=O)OC(COC(=O)CCCCCCCCCCCCCCC)COC(=O)C(C)CC (stereo not shown) [EC_A20], the “IL-6 concentration (average ± deviation)” value (IL-6) is reported as 0.055 ± 0.001 µg/mL, the “STAT3 activity_SEAP expression(%) (average ± deviation)” value (STAT3) is reported as 196.7 ± 35.1% and the “STAT6 activity_Luciferase activity (average ± deviation)” value (STAT6) is reported as 609.5 ± 197.0. For the same compound, the “IL-4 concentration (average ± deviation)” value (IL-4) was 194.2 ± 47.5 pg/µL.

In the case of CCCCC/C=C\C/C=C\CCCCCCCC(=O)OC(COC(=O)CCCCCCCCCCCCCCC)COC(=O)C(C)(C)C (stereo not shown) [EC_A22], the “decrease of STAT3 activity compared to the IL-6 cytokine-treated group” value (STAT3; 100 μg/ml) is reported as “about 25%”, the “STAT3 activity_SEAP expression(%) (average ± deviation)” value (STAT3) is reported as 169.5 ± 10.5% and the “Number” value (HL-60 cells) is reported as 1181.1 Cell Number. The “STAT6 activity_Luciferase activity (average ± deviation)” value (STAT6) was 645.5 ± 111.4.

For CCCCC/C=C\C/C=C\CCCCCCCC(=O)OC(COCCC)COC(=O)CCCCCCCCCCCCCCC (stereo not shown) [EC_A15], the “IL-6 concentration (average ± deviation)” value (IL-6) was 0.125 ± 0.003 µg/mL, the “STAT3 activity_SEAP expression(%) (average ± deviation)” value (STAT3) was 232.0 ± 50.4% and the “reduction of CXCL8 (IL-8) expression/secretion” value (CXCL8 (IL-8); Gemcitabine-treated, 100 μg/ml) was “about 20%”. For the same compound, the “CXCL8 [IL-8] concentration (average ± deviation)” value (CXCL8 (IL-8)) was 73.8 ± 0.0 pg/µL, the “Number” value (HL-60 cells) was 28884.8 Cell Number and the “STAT6 activity_Luciferase activity (average ± deviation)” value (STAT6) was 707.5 ± 51.3.
